Measured values reported in patent US9247759B2, “Identification of human T2R receptors that respond to bitter compounds that elicit the bitter taste in compositions, and the use thereof in assays to identify compounds that inhibit (block) bitter taste in compositions and use thereof” (SENOMYX, INC., priority 2007, dated 2016).
Like-named read-outs stand apart in the source and are kept apart here.

Assays:
hT2R13 = hT2R13 (Homo sapiens (Human), UniProt Q9NYV9); assay: hT2R panel inhibition, transient HEK293 G16g44, agonist Oxyphenonium 1 mM; format: cell-based; settings: HEK293, compound at 25 μM
Sequence of hT2R13 (Q9NYV9 whole entry): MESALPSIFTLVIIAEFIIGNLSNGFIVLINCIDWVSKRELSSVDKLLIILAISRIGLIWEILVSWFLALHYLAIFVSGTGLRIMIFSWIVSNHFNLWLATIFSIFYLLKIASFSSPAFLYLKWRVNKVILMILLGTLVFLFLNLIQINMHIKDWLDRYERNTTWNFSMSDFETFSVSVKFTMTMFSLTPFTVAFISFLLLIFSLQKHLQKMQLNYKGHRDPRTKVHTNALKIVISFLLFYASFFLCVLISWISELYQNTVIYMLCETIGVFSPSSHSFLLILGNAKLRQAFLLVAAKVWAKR
Procedure: Specifically, in order to evaluate the inhibitory selectivity of the Compound C compound, this compound was tested against 22 human T2Rs which were deorphaned by Senomyx. These receptors and the bitter ligands that activate these human T2Rs are reported in earlier patent applications which are incorporated by reference herein. These 22 human T2Rs are hT2R1, 3, 4, 5, 7, 8, 9, 10, 13, 14, 16, 44, 51, 54, 55, 61, 63, 64, 65, 67, 71 and 75. The amino acid and nucleic acid sequences of all of these T2Rs may be found in these earlier patent applications. These human T2Rs were each individually transiently transfected into HEK293 cells that stably express the promiscuous G protein G16g44 and functional assays were effected using these receptors as disclosed in these same patent applications. […] The ligands were used at EC80 concentration levels. The list of bitter ligands utilized and the tested ligand concentrations are contained in Table 5 of this example.
Relating to the foregoing, FIG. 5 contains experimental results wherein Compound C was tested with different agonist compounds. The inhibition activity is represented by the reduction of receptor activity in the presence of Compound C. […] These 13 hT2Rs are hT2R3, 7, 10, 14, 16, 44, 51, 55, 61, 63, 64, 65, and 71.

hT2R63 = assay: hT2R panel inhibition, transient HEK293 G16g44, agonist Caffeine 1 mM or Andrographolide 100 μM; format: cell-based, human; settings: compound at 25 μM; for screening result against bitter receptor 63: receptor activated to EC80 with the corresponding agonist
How it was run: (§1)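 Receptor activity was measured in functional assays after single-receptor transient transfection; bitter agonists were used at their EC80 levels. A decrease in that activity when the test compound was added was taken as inhibition.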

hT2R44 = assay: hT2R panel inhibition, transient HEK293 G16g44, agonist Denatonium 0.5 μM; format: cell-based, human; settings: compound at 25 μM; for screening result against bitter receptor 44: receptor activated to EC80 with the corresponding agonist
How it was run: as §1

hT2R9 = hT2R9 (Homo sapiens (Human), UniProt Q9NYW1); assay: hT2R panel inhibition, transient HEK293 G16g44, agonist Ofloxacin 1 mM; format: cell-based; settings: HEK293, compound at 25 μM
Sequence of hT2R9 (Q9NYW1 whole entry): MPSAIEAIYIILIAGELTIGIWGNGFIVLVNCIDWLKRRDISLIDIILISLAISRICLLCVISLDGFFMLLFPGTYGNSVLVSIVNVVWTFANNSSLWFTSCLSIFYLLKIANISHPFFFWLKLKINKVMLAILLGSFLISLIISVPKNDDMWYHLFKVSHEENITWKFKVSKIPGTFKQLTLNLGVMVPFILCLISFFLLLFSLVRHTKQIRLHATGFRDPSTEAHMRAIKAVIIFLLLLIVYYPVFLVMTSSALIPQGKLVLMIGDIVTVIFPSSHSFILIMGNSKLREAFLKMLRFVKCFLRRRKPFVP
How it was run: as §1

hT2R14 [1] = biological target: T1, hT2R14 (Homo sapiens (Human), UniProt Q9NYV8); assay: hT2R panel inhibition, transient HEK293 G16g44, agonist Aristolochic Acid 2 μM; format: cell-based; settings: HEK293, compound at 25 μM
T1 sequence (Q9NYV8 whole entry): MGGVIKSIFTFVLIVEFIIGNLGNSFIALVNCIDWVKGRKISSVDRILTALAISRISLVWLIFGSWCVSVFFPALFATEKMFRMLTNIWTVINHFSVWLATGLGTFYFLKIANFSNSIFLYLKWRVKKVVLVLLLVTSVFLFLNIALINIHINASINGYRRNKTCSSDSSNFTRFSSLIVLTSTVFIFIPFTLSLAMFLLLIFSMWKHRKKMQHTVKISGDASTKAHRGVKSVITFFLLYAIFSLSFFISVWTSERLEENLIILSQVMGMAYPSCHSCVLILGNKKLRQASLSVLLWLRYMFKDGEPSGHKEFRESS
How it was run: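 Each hT2R was transiently transfected into HEK293 cells stably expressing G16g44 and assayed functionally for inhibition of agonist response. Agonists were applied at EC80: andrographolide at 0.5 mM for hT2R8 and aristolochic acid at 2 μM for hT2R14.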

hT2R14 [2] = biological target: T1, hT2R14; assay: hT2R14 antagonist high-throughput FLIPR assay, stable cell line with G16g44, agonist aristolochic acid; format: cell-based; settings: read-out: IC50 on hT2R14 bitter receptor
How it was run: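 HEK293 cells stably expressing hT2R14 with chimeric G16g44 were stimulated with aristolochic acid (3 μM), giving 70-80% of maximal receptor activity. Test compounds were added together with the agonist, and antagonism was read as fluorescent calcium signal on FLIPR.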

hT2R61 = hT2R61 (Homo sapiens (Human), UniProt P59537); assay: hT2R panel inhibition, transient HEK293 G16g44, agonist Aristolochic Acid 25 nM; format: cell-based; settings: HEK293, compound at 25 μM
Sequence of hT2R61 (P59537 whole entry): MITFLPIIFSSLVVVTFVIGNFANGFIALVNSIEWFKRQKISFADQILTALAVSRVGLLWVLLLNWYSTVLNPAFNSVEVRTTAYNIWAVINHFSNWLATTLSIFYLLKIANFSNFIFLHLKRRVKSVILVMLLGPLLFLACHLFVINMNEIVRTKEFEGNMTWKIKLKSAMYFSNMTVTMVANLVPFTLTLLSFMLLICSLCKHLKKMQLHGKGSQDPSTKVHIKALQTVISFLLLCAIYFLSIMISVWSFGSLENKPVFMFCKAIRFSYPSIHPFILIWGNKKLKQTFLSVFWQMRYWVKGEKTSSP
How it was run: as §1

hT2R7 = hT2R7 (Homo sapiens (Human), UniProt Q9NYW3); assay: hT2R panel inhibition, transient HEK293 G16g44, agonist Chloroquine pH6.5 10 mM; format: cell-based; settings: HEK293, compound at 25 μM
Sequence of hT2R7 (Q9NYW3 whole entry): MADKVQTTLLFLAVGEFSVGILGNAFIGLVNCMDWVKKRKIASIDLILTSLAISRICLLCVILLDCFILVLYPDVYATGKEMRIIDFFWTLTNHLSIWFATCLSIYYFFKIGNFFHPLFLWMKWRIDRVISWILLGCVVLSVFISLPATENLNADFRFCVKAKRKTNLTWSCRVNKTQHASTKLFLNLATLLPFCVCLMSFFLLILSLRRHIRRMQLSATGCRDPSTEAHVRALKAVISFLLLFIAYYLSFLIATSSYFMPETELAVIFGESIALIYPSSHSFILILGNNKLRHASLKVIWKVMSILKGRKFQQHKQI
How it was run: as §1

hT2R75 = hT2R75 (Homo sapiens (Human), UniProt P59540); assay: hT2R panel inhibition, transient HEK293 G16g44, agonist Strychnine 1 μM; format: cell-based; settings: HEK293, read-out: screening result against bitter receptor 75, compound at 25 μM; receptor activated to EC80 with the corresponding agonist
Sequence of hT2R75 (P59540 whole entry): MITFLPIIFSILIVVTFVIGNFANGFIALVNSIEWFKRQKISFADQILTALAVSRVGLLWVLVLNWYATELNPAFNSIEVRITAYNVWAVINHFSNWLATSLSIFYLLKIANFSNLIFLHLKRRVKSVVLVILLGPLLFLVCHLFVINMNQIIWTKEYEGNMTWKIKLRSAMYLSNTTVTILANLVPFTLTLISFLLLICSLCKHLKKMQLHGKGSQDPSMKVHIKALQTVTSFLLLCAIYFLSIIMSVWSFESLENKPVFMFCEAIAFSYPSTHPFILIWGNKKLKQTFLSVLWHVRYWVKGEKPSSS

hT2R5 = hT2R5 (Homo sapiens (Human), UniProt Q9NYW4); assay: hT2R panel inhibition, transient HEK293 G16g44, agonist Picoline 10 mM; format: cell-based; settings: HEK293, compound at 25 μM; receptor activated to EC80 with the corresponding agonist; read-out: screening result against bitter receptor 5
Sequence of hT2R5 (Q9NYW4 whole entry): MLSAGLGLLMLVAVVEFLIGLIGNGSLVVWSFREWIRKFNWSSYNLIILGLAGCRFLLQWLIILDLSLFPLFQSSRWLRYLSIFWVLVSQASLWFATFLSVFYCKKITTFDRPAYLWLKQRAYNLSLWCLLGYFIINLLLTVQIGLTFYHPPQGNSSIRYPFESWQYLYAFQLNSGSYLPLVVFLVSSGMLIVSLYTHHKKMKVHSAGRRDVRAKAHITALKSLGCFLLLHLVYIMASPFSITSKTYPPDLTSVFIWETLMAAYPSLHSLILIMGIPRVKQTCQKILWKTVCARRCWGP
How it was run: as §1

hT2R51 = hT2R51 (Homo sapiens (Human), UniProt P59533); assay: hT2R panel inhibition, transient HEK293 G16g44, agonist Prop 2.5 μM; format: cell-based; settings: HEK293, compound at 25 μM; receptor activated to EC80 with the corresponding agonist; read-out: screening result against bitter receptor 51
Sequence of hT2R51 (P59533 whole entry): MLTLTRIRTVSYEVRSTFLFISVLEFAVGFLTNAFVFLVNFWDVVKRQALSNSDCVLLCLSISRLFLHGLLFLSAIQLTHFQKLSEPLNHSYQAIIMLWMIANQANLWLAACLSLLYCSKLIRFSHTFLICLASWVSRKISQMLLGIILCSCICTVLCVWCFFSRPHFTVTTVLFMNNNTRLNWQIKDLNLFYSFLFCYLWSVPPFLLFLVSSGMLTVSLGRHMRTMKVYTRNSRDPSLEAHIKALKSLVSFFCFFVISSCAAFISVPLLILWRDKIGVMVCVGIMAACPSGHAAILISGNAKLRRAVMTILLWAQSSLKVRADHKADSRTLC
How it was run: as §1

hT2R3 = hT2R3 (Homo sapiens (Human), UniProt Q9NYW6); assay: hT2R panel inhibition, transient HEK293 G16g44, agonist Chloroquine pH6.5 50 μM; format: cell-based; settings: HEK293, compound at 25 μM; receptor activated to EC80 with the corresponding agonist; read-out: screening result against bitter receptor 3
Sequence of hT2R3 (Q9NYW6 whole entry): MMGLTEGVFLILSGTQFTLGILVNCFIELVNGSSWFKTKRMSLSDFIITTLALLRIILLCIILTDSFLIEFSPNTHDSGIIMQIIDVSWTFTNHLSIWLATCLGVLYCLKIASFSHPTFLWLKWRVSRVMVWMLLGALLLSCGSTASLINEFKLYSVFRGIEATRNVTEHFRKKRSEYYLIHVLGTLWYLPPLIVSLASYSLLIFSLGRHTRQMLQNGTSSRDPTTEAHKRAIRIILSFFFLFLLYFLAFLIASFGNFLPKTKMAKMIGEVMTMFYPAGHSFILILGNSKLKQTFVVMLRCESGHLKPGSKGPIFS
How it was run: as §1

hT2R64 = hT2R64 (Homo sapiens (Human), UniProt P59538); assay: hT2R panel inhibition, transient HEK293 G16g44, agonist Aristolochic Acid 1 μM; format: cell-based; settings: HEK293, compound at 25 μM; receptor activated to EC80 with the corresponding agonist; read-out: screening result against bitter receptor 64
Sequence of hT2R64 (P59538 whole entry): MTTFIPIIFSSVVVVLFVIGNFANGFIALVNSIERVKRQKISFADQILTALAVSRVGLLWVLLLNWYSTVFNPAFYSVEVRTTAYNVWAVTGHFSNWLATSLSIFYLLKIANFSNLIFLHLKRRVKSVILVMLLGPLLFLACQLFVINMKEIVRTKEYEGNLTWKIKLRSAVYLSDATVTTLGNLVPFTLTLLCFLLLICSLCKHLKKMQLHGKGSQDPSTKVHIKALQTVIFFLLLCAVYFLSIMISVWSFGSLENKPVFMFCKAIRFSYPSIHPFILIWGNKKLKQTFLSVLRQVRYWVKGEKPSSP
How it was run: as §1

hT2R55 = assay: hT2R panel inhibition, transient HEK293 G16g44, agonist Cinchonine 150 μM; format: cell-based, human; settings: compound at 25 μM; receptor activated to EC80 with the corresponding agonist
How it was run: as §1

hT2R10 = hT2R10 (Homo sapiens (Human), UniProt Q9NYW0); assay: hT2R panel inhibition, transient HEK293 G16g44, agonist Strychnine 50 μM; format: cell-based; settings: HEK293, read-out: screening result against bitter receptor 10, compound at 25 μM; receptor activated to EC80 with the corresponding agonist
Sequence of hT2R10 (Q9NYW0 whole entry): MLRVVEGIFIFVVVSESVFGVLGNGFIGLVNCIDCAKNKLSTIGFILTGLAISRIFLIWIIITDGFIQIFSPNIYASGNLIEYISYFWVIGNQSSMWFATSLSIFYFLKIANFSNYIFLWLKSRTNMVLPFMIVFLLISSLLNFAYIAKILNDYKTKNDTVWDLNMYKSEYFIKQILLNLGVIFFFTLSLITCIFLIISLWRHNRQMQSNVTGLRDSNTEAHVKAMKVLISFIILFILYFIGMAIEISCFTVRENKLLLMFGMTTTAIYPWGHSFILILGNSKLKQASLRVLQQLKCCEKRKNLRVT

hT2R16 = hT2R16 (Homo sapiens (Human), UniProt Q9NYV7); assay: hT2R panel inhibition, transient HEK293 G16g44, agonist Salicin 1 mM; format: cell-based; settings: HEK293, compound at 25 μM; receptor activated to EC80 with the corresponding agonist; read-out: screening result against bitter receptor 16
Sequence of hT2R16 (Q9NYV7 whole entry): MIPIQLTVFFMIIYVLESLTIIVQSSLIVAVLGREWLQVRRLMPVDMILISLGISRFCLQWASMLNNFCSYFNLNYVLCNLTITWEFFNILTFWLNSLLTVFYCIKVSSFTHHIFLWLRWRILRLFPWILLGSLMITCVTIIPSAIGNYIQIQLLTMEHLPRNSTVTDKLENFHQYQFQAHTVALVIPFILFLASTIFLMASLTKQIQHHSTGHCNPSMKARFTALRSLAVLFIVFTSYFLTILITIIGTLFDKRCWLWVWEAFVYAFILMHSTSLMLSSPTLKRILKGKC
How it was run: as §1

hT2R71 = hT2R71 (Homo sapiens (Human), UniProt P59536); assay: hT2R panel inhibition, transient HEK293 G16g44, agonist Picric Acid 10 μM; format: cell-based; settings: HEK293, compound at 25 μM; receptor activated to EC80 with the corresponding agonist; read-out: screening result against bitter receptor 71
Sequence of hT2R71 (P59536 whole entry): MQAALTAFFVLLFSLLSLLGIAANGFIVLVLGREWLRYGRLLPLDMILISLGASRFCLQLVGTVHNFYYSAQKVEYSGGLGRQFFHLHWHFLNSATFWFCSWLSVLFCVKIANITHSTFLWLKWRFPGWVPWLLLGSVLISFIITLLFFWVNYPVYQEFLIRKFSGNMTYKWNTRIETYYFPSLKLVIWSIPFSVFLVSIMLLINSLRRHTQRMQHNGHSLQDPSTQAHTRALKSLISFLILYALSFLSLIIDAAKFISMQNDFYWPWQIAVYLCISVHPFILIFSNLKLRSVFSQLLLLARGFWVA
How it was run: as §1

hT2R65 = assay: hT2R panel inhibition, transient HEK293 G16g44, agonist Oleuropein 1 mM; format: cell-based, human; settings: compound at 25 μM; receptor activated to EC80 with the corresponding agonist
How it was run: as §1

[3] = receptor activated to EC80 with agonist
[4] = receptor activated to EC80 with the corresponding agonist, read-out: screening result against bitter receptor 13
[5] = receptor activated to EC80 with the corresponding agonist, read-out: screening result against bitter receptor 9
[6] = receptor activated to EC80 with the corresponding agonist, read-out: screening result against bitter receptor 14
[7] = receptor activated to EC80 with the corresponding agonist, read-out: screening result against bitter receptor 7

Cn1c(=O)c(=O)n(C)c2cc(S(=O)(=O)Nc3ccc(Cc4ccccn4)cc3)ccc21 [Example 6-4, 1,4-dimethyl-2,3-dioxo-N-(4-(pyridin-2-ylmethyl)phenyl)-1,2,3,4-tetrahydroquinoxaline-6-sulfonamide]
inhibition at 25 µM (hT2R13; receptor activated to EC80 with agonist, read-out: inhibition of bitter receptor 13): > 80% | inhibition of bitter receptor 63 (hT2R63; [3]): + (20% to 40% inhibition = +) | inhibition of bitter receptor 44 (hT2R44; [3]): + (20% to 40% inhibition = +) | inhibition at 25 µM (hT2R9; receptor activated to EC80 with agonist, read-out: inhibition of bitter receptor 9): 20 to 40% | inhibition at 25 µM (hT2R14 [1]; receptor activated to EC80 with agonist, read-out: inhibition of bitter receptor 14): > 80% | IC50 (hT2R14 [2]): 6.14 µM | inhibition at 25 µM (hT2R61; receptor activated to EC80 with agonist, read-out: inhibition of bitter receptor 61): 20 to 40% | inhibition at 25 µM (hT2R7; receptor activated to EC80 with agonist, read-out: inhibition of bitter receptor 7): 20 to 40%

COc1ccc(CN(Cc2ccc(OC)cc2)S(=O)(=O)c2ccc(C(=O)O)cc2)cc1 [Example 5-30, 4-(N,N-bis(4-methoxybenzyl)sulfamoyl)benzoic acid]
inhibition at 25 µM (hT2R13; [4]): 20 to 40% | screening result against bitter receptor 63 (hT2R63): ++++ (80% or greater inhibition = ++++) | inhibition at 25 µM (hT2R75): 20 to 40% | screening result against bitter receptor 44 (hT2R44): +++ (60% to 80% inhibition = +++) | inhibition at 25 µM (hT2R5): 20 to 40% | inhibition at 25 µM (hT2R51): 40 to 60% | inhibition at 25 µM (hT2R9; [5]): 20 to 40% | inhibition at 25 µM (hT2R14 [1]; [6]): > 80% | inhibition at 25 µM (hT2R3): 40 to 60% | inhibition at 25 µM (hT2R64): > 80% | screening result against bitter receptor 55 (hT2R55): ++++ (80% or greater inhibition = ++++) | IC50 (hT2R14 [2]): 4.14 µM | inhibition at 25 µM (hT2R10): 40 to 60% | inhibition at 25 µM (hT2R16): 20 to 40% | inhibition at 25 µM (hT2R71): 60 to 80% | inhibition at 25 µM (hT2R7; [7]): 20 to 40%

Cc1ccc(S(=O)(=O)N(Cc2ccc(F)cc2)CC2CCC(C(=O)O)CC2)cc1 (centres unmarked) [Example 5-20, 4-((N-(4-fluorobenzyl)-4-methylphenylsulfonamido)methyl)-cyclohexanecarboxylic acid]
inhibition at 25 µM (hT2R13; [4]): 20 to 40% | screening result against bitter receptor 63 (hT2R63): ++ (40% to 60% inhibition = ++) | inhibition at 25 µM (hT2R75): 40 to 60% | screening result against bitter receptor 44 (hT2R44): +++ (60% to 80% inhibition = +++) | inhibition at 25 µM (hT2R5): 20 to 40% | inhibition at 25 µM (hT2R9; [5]): 20 to 40% | inhibition at 25 µM (hT2R14 [1]; [6]): > 80% | inhibition at 25 µM (hT2R3): > 80% | inhibition at 25 µM (hT2R64): 60 to 80% | screening result against bitter receptor 55 (hT2R55): ++++ (80% or greater inhibition = ++++) | IC50 (hT2R14 [2]): 0.083 µM | inhibition at 25 µM (hT2R61; receptor activated to EC80 with the corresponding agonist, read-out: screening result against bitter receptor 61): > 80% | inhibition at 25 µM (hT2R10): 40 to 60% | inhibition at 25 µM (hT2R16): 40 to 60% | screening result against bitter receptor 65 (hT2R65): + (20% to 40% inhibition = +) | inhibition at 25 µM (hT2R71): 40 to 60% | inhibition at 25 µM (hT2R7; [7]): 20 to 40%
